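Interpolation was linear, between the two tested concentrations surrounding the appropriate level; five concentrations were tested over 48 hours in 96-well plates. At the GI50, growth is halved. The concentration for full growth arrest is given as TGI.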
Experiments:
Assay in all cases: DTP human tumour cell line panel, 48 h
NCI-H522 lung = test system: NCI-H522 lung
T-47D breast = test system: T-47D breast
UACC-257 melanoma = test system: UACC-257 melanoma
NCI-H460 lung = test system: NCI-H460 lung
SK-MEL-5 melanoma = test system: SK-MEL-5 melanoma
PC-3 prostate = test system: PC-3 prostate
U251 CNS = test system: U251 CNS
M14 melanoma = test system: M14 melanoma
SN12C renal = test system: SN12C renal
ACHN renal = test system: ACHN renal
OVCAR-5 ovarian = test system: OVCAR-5 ovarian
MALME-3M melanoma = test system: MALME-3M melanoma
HOP-62 NSCLC = test system: HOP-62 NSCLC
CCRF-CEM leukemia = test system: CCRF-CEM leukemia
HT29 colon = test system: HT29 colon
HCC-2998 colon = test system: HCC-2998 colon
HS 578T breast = test system: HS 578T breast
RXF 393 renal = test system: RXF 393 renal
A549 NSCLC = test system: A549 NSCLC
UACC-62 melanoma = test system: UACC-62 melanoma
RPMI-8226 leukemia = test system: RPMI-8226 leukemia
OVCAR-8 ovarian = test system: OVCAR-8 ovarian
786-0 renal = test system: 786-0 renal
EKVX NSCLC = test system: EKVX NSCLC
HCT-15 colon = test system: HCT-15 colon
NCI/ADR-RES ovarian = test system: NCI/ADR-RES ovarian
HL-60(TB) leukemia = test system: HL-60(TB) leukemia
NCI-H226 lung = test system: NCI-H226 lung
TK-10 renal = test system: TK-10 renal
K-562 leukemia = test system: K-562 leukemia
UO-31 renal = test system: UO-31 renal
MOLT-4 leukemia = test system: MOLT-4 leukemia
OVCAR-3 ovarian = test system: OVCAR-3 ovarian
MDA-MB-231 breast = test system: MDA-MB-231 breast
MDA-MB-435 = test system: MDA-MB-435
SF-268 CNS = test system: SF-268 CNS
CAKI-1 renal = test system: CAKI-1 renal
SF-539 CNS = test system: SF-539 CNS
HOP-92 NSCLC = test system: HOP-92 NSCLC
SR leukemia = test system: SR leukemia
IGROV1 ovarian = test system: IGROV1 ovarian
SNB-19 CNS = test system: SNB-19 CNS
SK-MEL-2 melanoma = test system: SK-MEL-2 melanoma
COLO 205 colon = test system: COLO 205 colon
DU-145 prostate = test system: DU-145 prostate
SK-OV-3 ovarian = test system: SK-OV-3 ovarian
BT-549 breast = test system: BT-549 breast
HCT-116 colon = test system: HCT-116 colon
SK-MEL-28 melanoma = test system: SK-MEL-28 melanoma
MCF7 breast = test system: MCF7 breast
A498 renal = test system: A498 renal
OVCAR-4 ovarian = test system: OVCAR-4 ovarian
KM12 colon = test system: KM12 colon
NCI-H23 lung = test system: NCI-H23 lung
SF-295 CNS = test system: SF-295 CNS
SW-620 colon = test system: SW-620 colon
LOX IMVI melanoma = test system: LOX IMVI melanoma
SNB-75 CNS = test system: SNB-75 CNS

C/C=C(\C)C(=O)O[C@H]1C=CC(=O)O[C@@H]1CC[C@H](O)[C@H](C)O
GI50 (NCI-H522 lung): 18 µM | TGI (NCI-H522 lung): 43.4 µM | GI50 (T-47D breast): 38.6 µM | TGI (T-47D breast): > 87.1 µM | GI50 (UACC-257 melanoma): 80.9 µM | TGI (UACC-257 melanoma): > 100 µM | GI50 (NCI-H460 lung): > 77.3 µM | TGI (NCI-H460 lung): > 100 µM | GI50 (SK-MEL-5 melanoma): 25.4 µM | TGI (SK-MEL-5 melanoma): 75.2 µM | GI50 (PC-3 prostate): > 86.2 µM | TGI (PC-3 prostate): > 100 µM | GI50 (U251 CNS): 55.3 µM | TGI (U251 CNS): > 100 µM | GI50 (M14 melanoma): 34 µM | TGI (M14 melanoma): > 100 µM | GI50 (SN12C renal): 47 µM | TGI (SN12C renal): > 100 µM | GI50 (ACHN renal): 33.4 µM | TGI (ACHN renal): > 92.8 µM | GI50 (OVCAR-5 ovarian): > 100 µM | TGI (OVCAR-5 ovarian): > 100 µM | GI50 (MALME-3M melanoma): 29.3 µM | TGI (MALME-3M melanoma): 70.6 µM | GI50 (HOP-62 NSCLC): > 100 µM | TGI (HOP-62 NSCLC): > 100 µM | GI50 (CCRF-CEM leukemia): 21.3 µM | TGI (CCRF-CEM leukemia): 66.2 µM | GI50 (HT29 colon): 30.6 µM | TGI (HT29 colon): 97.5 µM | GI50 (HCC-2998 colon): 64.6 µM | TGI (HCC-2998 colon): > 100 µM | GI50 (HS 578T breast): 34.8 µM | TGI (HS 578T breast): 94.2 µM | GI50 (RXF 393 renal): 49.5 µM | TGI (RXF 393 renal): > 88.7 µM | GI50 (A549 NSCLC): > 75.1 µM | TGI (A549 NSCLC): > 100 µM | GI50 (UACC-62 melanoma): 38.5 µM | TGI (UACC-62 melanoma): > 73.9 µM | GI50 (RPMI-8226 leukemia): 22.8 µM | TGI (RPMI-8226 leukemia): 58.7 µM | GI50 (OVCAR-8 ovarian): 52.5 µM | TGI (OVCAR-8 ovarian): > 100 µM | GI50 (786-0 renal): 46.5 µM | TGI (786-0 renal): > 100 µM | GI50 (EKVX NSCLC): 73.9 µM | TGI (EKVX NSCLC): > 100 µM | GI50 (HCT-15 colon): 28.6 µM | TGI (HCT-15 colon): > 80.3 µM | GI50 (NCI/ADR-RES ovarian): > 100 µM | TGI (NCI/ADR-RES ovarian): > 100 µM | GI50 (HL-60(TB) leukemia): 5.71 µM | TGI (HL-60(TB) leukemia): 36.3 µM | GI50 (NCI-H226 lung): 47.4 µM | TGI (NCI-H226 lung): > 100 µM | GI50 (TK-10 renal): 50.6 µM | TGI (TK-10 renal): > 100 µM | GI50 (K-562 leukemia): 33 µM | TGI (K-562 leukemia): > 100 µM | GI50 (UO-31 renal): 20.5 µM | TGI (UO-31 renal): > 67.4 µM | GI50 (MOLT-4 leukemia): 1.99 µM | TGI (MOLT-4 leukemia): > 100 µM | GI50 (OVCAR-3 ovarian): 36.5 µM | TGI (OVCAR-3 ovarian): > 100 µM | GI50 (MDA-MB-231 breast): 52.2 µM | TGI (MDA-MB-231 breast): > 100 µM | GI50 (MDA-MB-435): 34.6 µM | TGI (MDA-MB-435): > 100 µM | GI50 (SF-268 CNS): 28.8 µM | TGI (SF-268 CNS): > 100 µM | GI50 (CAKI-1 renal): 27.3 µM | TGI (CAKI-1 renal): 68.4 µM | GI50 (SF-539 CNS): 30.9 µM | TGI (SF-539 CNS): > 100 µM | GI50 (HOP-92 NSCLC): 35 µM | TGI (HOP-92 NSCLC): > 87.5 µM | GI50 (SR leukemia): 4.7 µM | TGI (SR leukemia): 42.8 µM | GI50 (IGROV1 ovarian): 42 µM | TGI (IGROV1 ovarian): > 100 µM | GI50 (SNB-19 CNS): 98.9 µM | TGI (SNB-19 CNS): > 100 µM | GI50 (SK-MEL-2 melanoma): 37.6 µM | TGI (SK-MEL-2 melanoma): 98.1 µM | GI50 (COLO 205 colon): 30.6 µM | TGI (COLO 205 colon): 72.6 µM | GI50 (DU-145 prostate): 34 µM | TGI (DU-145 prostate): > 100 µM | GI50 (SK-OV-3 ovarian): > 100 µM | TGI (SK-OV-3 ovarian): > 100 µM | GI50 (BT-549 breast): 27.3 µM | TGI (BT-549 breast): 71.2 µM | GI50 (HCT-116 colon): 21.4 µM | TGI (HCT-116 colon): 67.2 µM | GI50 (SK-MEL-28 melanoma): 27.4 µM | TGI (SK-MEL-28 melanoma): 74.7 µM | GI50 (MCF7 breast): 32.6 µM | TGI (MCF7 breast): > 100 µM | GI50 (A498 renal): > 100 µM | TGI (A498 renal): > 100 µM | GI50 (OVCAR-4 ovarian): 41.6 µM | TGI (OVCAR-4 ovarian): 97.5 µM | GI50 (KM12 colon): 48.2 µM | TGI (KM12 colon): > 100 µM | GI50 (NCI-H23 lung): 69.1 µM | TGI (NCI-H23 lung): > 100 µM | GI50 (SF-295 CNS): > 100 µM | TGI (SF-295 CNS): > 100 µM | GI50 (SW-620 colon): 24 µM | TGI (SW-620 colon): 57.6 µM | GI50 (LOX IMVI melanoma): 27.5 µM | TGI (LOX IMVI melanoma): > 78.7 µM | GI50 (SNB-75 CNS): 33.3 µM | TGI (SNB-75 CNS): 78.9 µM

CCNC(=O)c1cc(/C=C/c2ccc([N+](=O)[O-])o2)nc2ccccc12
TGI (NCI-H522 lung): > 49 µM | TGI (T-47D breast): > 100 µM | TGI (UACC-257 melanoma): 28.2 µM | TGI (NCI-H460 lung): 17.4 µM | TGI (SK-MEL-5 melanoma): 4.1 µM | TGI (PC-3 prostate): > 100 µM | TGI (U251 CNS): > 100 µM | TGI (M14 melanoma): 14.5 µM | TGI (SN12C renal): > 100 µM | TGI (ACHN renal): > 100 µM | TGI (OVCAR-5 ovarian): > 100 µM | TGI (MALME-3M melanoma): > 52.5 µM | TGI (HOP-62 NSCLC): > 100 µM | TGI (CCRF-CEM leukemia): > 100 µM | TGI (HT29 colon): > 100 µM | TGI (HCC-2998 colon): > 100 µM | TGI (HS 578T breast): > 100 µM | TGI (RXF 393 renal): > 100 µM | TGI (A549 NSCLC): > 100 µM | TGI (UACC-62 melanoma): > 100 µM | TGI (RPMI-8226 leukemia): > 100 µM | TGI (OVCAR-8 ovarian): > 100 µM | TGI (786-0 renal): > 100 µM | TGI (EKVX NSCLC): > 100 µM | TGI (HCT-15 colon): > 100 µM | TGI (NCI/ADR-RES ovarian): > 100 µM | TGI (HL-60(TB) leukemia): > 100 µM | TGI (NCI-H226 lung): > 100 µM | TGI (TK-10 renal): > 91.9 µM | TGI (K-562 leukemia): > 100 µM | TGI (UO-31 renal): > 100 µM | TGI (MOLT-4 leukemia): > 95.4 µM | TGI (OVCAR-3 ovarian): > 100 µM | TGI (MDA-MB-231 breast): > 100 µM | TGI (MDA-MB-435): 12.6 µM | TGI (SF-268 CNS): > 100 µM | TGI (CAKI-1 renal): > 100 µM | TGI (SF-539 CNS): > 100 µM | TGI (HOP-92 NSCLC): > 100 µM | TGI (SR leukemia): > 100 µM | TGI (IGROV1 ovarian): > 65.8 µM | TGI (SNB-19 CNS): > 100 µM | TGI (SK-MEL-2 melanoma): 16.6 µM | TGI (COLO 205 colon): > 84.2 µM | TGI (DU-145 prostate): > 100 µM | TGI (SK-OV-3 ovarian): > 100 µM | TGI (BT-549 breast): > 100 µM | TGI (HCT-116 colon): > 100 µM | TGI (SK-MEL-28 melanoma): 71.4 µM | TGI (MCF7 breast): > 100 µM | TGI (A498 renal): 71 µM | TGI (OVCAR-4 ovarian): > 100 µM | TGI (KM12 colon): > 100 µM | TGI (NCI-H23 lung): > 100 µM | TGI (SF-295 CNS): > 100 µM | TGI (SW-620 colon): > 100 µM | TGI (LOX IMVI melanoma): > 100 µM | TGI (SNB-75 CNS): 63.8 µM
